Experiments:
[1] = molecular target: N-acetylated, α-linked, acidic dipeptidase (NAALADase) (Homo sapiens, UniProt Q04609); test: inhibition of NAALADase by clavulanic acid (applicant's discovery, no method given); assay type: biochemical; details: statement in words, no data
serine β-lactamase = details: background statement in words; cited from earlier work
bacteria = details: clavulanic acid alone; background statement in words; cited from earlier work

Chain of N-acetylated, α-linked, acidic dipeptidase (NAALADase) (Q04609 whole entry): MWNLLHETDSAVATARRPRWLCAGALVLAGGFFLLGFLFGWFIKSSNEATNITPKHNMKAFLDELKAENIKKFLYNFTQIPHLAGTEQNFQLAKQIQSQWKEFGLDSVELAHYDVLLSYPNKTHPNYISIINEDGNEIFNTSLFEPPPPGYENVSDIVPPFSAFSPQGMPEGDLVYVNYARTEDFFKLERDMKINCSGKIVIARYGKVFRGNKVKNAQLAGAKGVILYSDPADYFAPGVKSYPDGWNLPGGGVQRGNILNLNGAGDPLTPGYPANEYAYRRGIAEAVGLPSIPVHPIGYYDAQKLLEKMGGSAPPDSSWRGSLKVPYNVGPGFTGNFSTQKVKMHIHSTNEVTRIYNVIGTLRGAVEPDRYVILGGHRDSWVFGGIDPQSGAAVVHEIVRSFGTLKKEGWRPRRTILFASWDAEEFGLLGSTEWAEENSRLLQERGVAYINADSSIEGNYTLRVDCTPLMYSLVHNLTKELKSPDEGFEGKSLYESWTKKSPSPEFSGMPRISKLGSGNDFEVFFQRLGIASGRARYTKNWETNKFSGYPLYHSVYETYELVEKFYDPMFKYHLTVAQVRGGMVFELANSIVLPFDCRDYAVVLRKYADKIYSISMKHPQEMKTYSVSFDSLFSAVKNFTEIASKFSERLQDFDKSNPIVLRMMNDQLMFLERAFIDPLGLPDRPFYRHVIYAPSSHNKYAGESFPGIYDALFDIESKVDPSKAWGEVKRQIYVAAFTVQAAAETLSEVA

In the case of `O=C(O)[C@H]1/C(=C/CO)O[C@@H]2CC(=O)N21` [clavulanic acid], the “inhibition of NAALADase” value [1] is listed as “potent inhibitor”, the “binding affinity for the serine β-lactamases” value (serine β-lactamase) is listed as “very high binding affinity” and the “inhibition of "serine" β-lactamase” value (serine β-lactamase) is listed as “potent inhibitor”. The antibacterial activity (bacteria) was “only weak, though broad spectrum, antibacterial activity”.

From patent US20040072815A1, “Antibiotic composition and method” (priority 2003, published 2004)
